Results reported in ChEMBL document CHEMBL1201862, “PubChem BioAssay data set” (2004).
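Protocol summary: plate cells (96-well), add compound at 5 concentrations, incubate 48 h, interpolate endpoints linearly. GI50 is the concentration that inhibits growth by half.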 Calls of active or inactive are those of the source. No stated cut-off is given here; in the data, active = GI50 up to about 1.1 µM and inactive = higher.

What was measured:
Experiment in all cases: NCI-60 cell line screen, 48 h
[1] = test system: PC-3
[2] = test system: DU-145
[3] = test system: EKVX
[4] = test system: SF-295
[5] = test system: CAKI-1
[6] = test system: CCRF-CEM
[7] = test system: SNB-75
[8] = test system: COLO 205
[9] = test system: OVCAR-8
[10] = test system: SK-MEL-28
[11] = test system: SF-539
[12] = test system: HOP-62
[13] = test system: IGROV-1
[14] = test system: SW-620
[15] = test system: HT-29
[16] = test system: SR
[17] = test system: NCI-H522
[18] = test system: HCT-116
[19] = test system: LOX IMVI
[20] = test system: TK-10

Compound	GI50 [1]	GI50 [2]	GI50 [3]	GI50 [4]	GI50 [5]	GI50 [6]	GI50 [7]	GI50 [8]	GI50 [9]	GI50 [10]	GI50 [11]	GI50 [12]	GI50 [13]	GI50 [14]	GI50 [15]	GI50 [16]	GI50 [17]	GI50 [18]	GI50 [19]	GI50 [20]
O=c1c2cc(S(=O)(=O)Nc3ccccc3Cl)ccc2ncn1NS(=O)(=O)c1ccc(Br)cc1	> 37.5 µM (inactive)	> 37.5 µM (inactive)	> 37.5 µM (inactive)	> 37.5 µM (inactive)	> 37.5 µM (inactive)	> 37.5 µM (inactive)	> 37.5 µM (inactive)	> 37.5 µM (inactive)	> 37.5 µM (inactive)	> 37.5 µM (inactive)	> 37.5 µM (inactive)	> 37.5 µM (inactive)	> 37.5 µM (inactive)	> 37.5 µM (inactive)	> 37.5 µM (inactive)	> 37.5 µM (inactive)	> 37.5 µM (inactive)	> 37.5 µM (inactive)	> 37.5 µM (inactive)	> 37.5 µM (inactive)
COC(=O)C1=C(C(=O)NNc2ccccc2)N(c2cccnc2Cl)C(c2ccccc2)=CC1c1ccccc1 (stereo not given)	31.3 µM (inactive)	80.9 µM (inactive)	> 100 µM (inactive)	19.6 µM (inactive)	56.5 µM (inactive)	27.7 µM (inactive)	> 100 µM (inactive)	66.7 µM (inactive)	> 100 µM (inactive)	48.2 µM (inactive)	72.4 µM (inactive)	> 100 µM (inactive)	> 100 µM (inactive)	31.6 µM (inactive)	58.6 µM (inactive)	24 µM (inactive)	> 100 µM (inactive)	23.7 µM (inactive)	30.5 µM (inactive)	54.6 µM (inactive)
COC(=O)CCC1(O)C=CC(=O)C=C1	> 100 µM (inactive)	36.8 µM (inactive)	> 100 µM (inactive)	> 100 µM (inactive)	16.6 µM (inactive)	43.4 µM (inactive)	> 100 µM (inactive)	17.6 µM (inactive)	31.7 µM (inactive)	23.2 µM (inactive)	25.8 µM (inactive)	> 100 µM (inactive)	20.6 µM (inactive)	29.8 µM (inactive)	36.7 µM (inactive)	25 µM (inactive)	14.1 µM (inactive)	34 µM (inactive)	30.3 µM (inactive)	36.7 µM (inactive)
C[N+]1(CCC[N+]2(C)CC3C4C=CC(CC4)C3C2)CCOCC1 (stereo not given)	> 100 µM (inactive)	> 100 µM (inactive)	> 100 µM (inactive)	> 100 µM (inactive)	> 100 µM (inactive)	> 100 µM (inactive)	> 100 µM (inactive)	> 100 µM (inactive)	> 100 µM (inactive)	> 100 µM (inactive)	> 100 µM (inactive)	> 100 µM (inactive)	> 100 µM (inactive)	> 100 µM (inactive)	> 100 µM (inactive)	> 100 µM (inactive)	> 100 µM (inactive)	> 100 µM (inactive)	> 100 µM (inactive)	> 100 µM (inactive)
COc1ccc2c(c1)-c1nc(=S)n(CCCN(C)C)c3ccc([N+](=O)[O-])c(c13)N2	0.771 µM (active)	0.689 µM (active)	0.805 µM (active)	1.81 µM (inactive)	1.68 µM (inactive)	0.205 µM (active)	6.32 µM (inactive)	0.656 µM (active)	0.456 µM (active)	1.13 µM (inactive)	0.589 µM (active)	0.451 µM (active)	0.345 µM (active)	0.344 µM (active)	0.261 µM (active)	0.506 µM (active)	0.766 µM (active)	0.224 µM (active)	0.53 µM (active)	2.8 µM (inactive)
CCN(CC)CCCNc1nncc2cc3c([nH]c4ccc(OC)cc43)c(C)c12	4.01 µM (inactive)	4.03 µM (inactive)	15.8 µM (inactive)	12.6 µM (inactive)	11.5 µM (inactive)	2.93 µM (inactive)	9.59 µM (inactive)	7.26 µM (inactive)	3.98 µM (inactive)	15.7 µM (inactive)	3.44 µM (inactive)	4.23 µM (inactive)	4.14 µM (inactive)	4.61 µM (inactive)	3.4 µM (inactive)	4.63 µM (inactive)	2.7 µM (inactive)	3.38 µM (inactive)	3.84 µM (inactive)	15.3 µM (inactive)
O=C(O)c1ccc(OCc2nc3cc(C(F)(F)F)ccc3nc2-c2ccccc2)cc1	53.8 µM (inactive)	60.1 µM (inactive)	55.7 µM (inactive)	39.1 µM (inactive)	5.52 µM (inactive)	42.8 µM (inactive)	17.2 µM (inactive)	19.8 µM (inactive)	41.9 µM (inactive)	61 µM (inactive)	32.1 µM (inactive)	66.2 µM (inactive)	56 µM (inactive)	53.2 µM (inactive)	32.1 µM (inactive)	11.5 µM (inactive)	74.6 µM (inactive)	36.9 µM (inactive)	40 µM (inactive)	71 µM (inactive)
CCCCCCCCCCCCCC(=O)NO	4.32 µM (inactive)	3.35 µM (inactive)	21.4 µM (inactive)	21.4 µM (inactive)	17.3 µM (inactive)	0.158 µM (active)	11.4 µM (inactive)	10.5 µM (inactive)	12.1 µM (inactive)	31.6 µM (inactive)	14.1 µM (inactive)	17.4 µM (inactive)	17.4 µM (inactive)	16.3 µM (inactive)	8.99 µM (inactive)	0.518 µM (active)	1.01 µM (active)	8.85 µM (inactive)	3.99 µM (inactive)	19.9 µM (inactive)
Cn1c(O)c(C(=O)Nc2ccc([N+](=O)[O-])cc2)c(=O)n(C)c1=S	1.34 µM (inactive)	2.02 µM (inactive)	2.9 µM (inactive)	1.31 µM (inactive)	2.81 µM (inactive)	2.38 µM (inactive)	1.63 µM (inactive)	3.31 µM (inactive)	2.14 µM (inactive)	1.88 µM (inactive)	1.9 µM (inactive)	1.23 µM (inactive)	2.55 µM (inactive)	3.49 µM (inactive)	2.23 µM (inactive)	3.63 µM (inactive)	2.32 µM (inactive)	2.26 µM (inactive)	2.69 µM (inactive)	2.77 µM (inactive)
O=P(O)(O)C(NCC(O)CN1CCOCC1)P(=O)(O)O (stereo not given)	> 100 µM (inactive)	> 100 µM (inactive)	> 100 µM (inactive)	> 100 µM (inactive)	> 100 µM (inactive)	> 100 µM (inactive)	> 100 µM (inactive)	> 100 µM (inactive)	> 100 µM (inactive)	> 100 µM (inactive)	> 100 µM (inactive)	> 100 µM (inactive)	> 100 µM (inactive)	> 100 µM (inactive)	> 100 µM (inactive)	> 100 µM (inactive)	> 100 µM (inactive)	> 100 µM (inactive)	> 100 µM (inactive)	> 100 µM (inactive)
COc1ccc(/C=N/N=C(\N)NO)c(O)c1	3.48 µM (inactive)	> 10 µM (inactive)	> 10 µM (inactive)	> 10 µM (inactive)	4.11 µM (inactive)	> 10 µM (inactive)	0.0678 µM (active)	> 10 µM (inactive)	> 10 µM (inactive)	> 10 µM (inactive)	> 10 µM (inactive)	> 10 µM (inactive)	8.77 µM (inactive)	> 10 µM (inactive)	5.66 µM (inactive)	2.81 µM (inactive)	> 10 µM (inactive)	3.53 µM (inactive)	3.27 µM (inactive)	> 10 µM (inactive)
CC1=NN(c2nc(N)nc(CBr)n2)C(C)(C)C1	5.33 µM (inactive)	3.3 µM (inactive)	3.66 µM (inactive)	12.1 µM (inactive)	1.47 µM (inactive)	0.229 µM (active)	9.75 µM (inactive)	3.03 µM (inactive)	5.45 µM (inactive)	13.7 µM (inactive)	2.3 µM (inactive)	19.7 µM (inactive)	1.49 µM (inactive)	4.19 µM (inactive)	4.98 µM (inactive)	2.88 µM (inactive)	0.234 µM (active)	6.27 µM (inactive)	0.708 µM (active)	4.25 µM (inactive)
COc1cccc(C2CC(C)(N3CCCC3)Oc3cc4c(cc32)OCO4)c1O (stereo not given)	10.6 µM (inactive)	32 µM (inactive)	63.2 µM (inactive)	22.1 µM (inactive)	31.7 µM (inactive)	15.2 µM (inactive)	15.5 µM (inactive)	19.1 µM (inactive)	30.2 µM (inactive)	22.5 µM (inactive)	19.4 µM (inactive)	27 µM (inactive)	26.2 µM (inactive)	25.8 µM (inactive)	19.1 µM (inactive)	3.81 µM (inactive)	19.1 µM (inactive)	13.2 µM (inactive)	28.8 µM (inactive)	37.3 µM (inactive)
OCCCNCc1ccccn1	> 100 µM (inactive)	> 100 µM (inactive)	> 100 µM (inactive)	> 100 µM (inactive)	> 100 µM (inactive)	> 100 µM (inactive)	> 100 µM (inactive)	> 100 µM (inactive)	> 100 µM (inactive)	> 100 µM (inactive)	> 100 µM (inactive)	> 100 µM (inactive)	> 100 µM (inactive)	> 100 µM (inactive)	> 100 µM (inactive)	> 100 µM (inactive)	> 100 µM (inactive)	> 100 µM (inactive)	> 100 µM (inactive)	> 100 µM (inactive)
